Laboratory results reported in PubChem BioAssay AID1996.
≈ marks a conversion by molar mass, not a printed value.

Conditions: buffer; pH 7.4; 200.0 µM

Structure (SMILES)	solubility kinetic
CC(=O)O/N=C/c1c(C)c(C=O)n2ccccc12	> 36.6 µg/mL
CCOC(=O)Cc1cnc(NC(=O)CSc2nc(N)cc(=O)[nH]2)s1	12.6 µg/mL (≈ 34.1 µM)
CCCNC(=S)N1CCC(C(=O)c2ccc(Cl)cc2)CC1	2.2 µg/mL (≈ 6.77 µM)
Cc1cc(NC(=O)c2ccc3c(c2)C(=O)N(CC(C)C)C3=O)no1	2.1 µg/mL (≈ 6.42 µM)
CN(CC(=O)Nc1cccc(F)c1)C(=O)CC1CC2CCC1C2 (centres undefined)	4 µg/mL (≈ 12.6 µM)
O=C(Nc1ccc(F)cc1)c1ccccc1NC(=O)C1CC=CCC1C(=O)O (centres undefined)	> 57.4 µg/mL
COc1ccc(S(=O)(=O)N(C)CC(=O)NCc2ccccn2)cc1	37.6 µg/mL (≈ 108 µM)
O=c1[nH]c(/C=C/c2ccc(Br)cc2)nc2ccccc12	0.8 µg/mL (≈ 2.45 µM)
O=C(NCc1ccco1)C(=S)N1CCCC1	> 35.7 µg/mL
CC1CCCCC1NC(=O)CCS(=O)(=O)c1ccc(Cl)cc1 (centres undefined)	22.8 µg/mL (≈ 66.3 µM)
COC(=O)c1sccc1NC(=O)c1cccc(Cl)c1	< 0.6 µg/mL
CC1=C(C)C(=O)N(C(C)CCc2ccccc2)C1=O (centres undefined)	4.4 µg/mL (≈ 17.1 µM)
N/C(=N\[N+](=O)[O-])N1CCN(C(=O)c2ccccc2)CC1	> 41.6 µg/mL
CCOc1ccccc1NC(=O)c1csc(C)c1C	16.5 µg/mL (≈ 59.9 µM)
N#Cc1cc([N+](=O)[O-])ccc1NC(=O)COC(=O)c1cnccn1	> 49.1 µg/mL
CCOC(=O)c1c(NC(=O)Nc2ccc(C)cc2)sc2c1CCN(C)C2	1.5 µg/mL (≈ 4.02 µM)
CCNC(=O)CCSc1nc(C)cc(C)n1	> 35.9 µg/mL
Cc1nccn1-c1ccc(C=O)cc1	27.6 µg/mL (≈ 148 µM)
COc1ccc(C(=O)OCC(=O)N2CCCC2=O)c(OC)c1	40.3 µg/mL (≈ 131 µM)
NC(=O)C1CC(=O)N(CCc2ccc(F)cc2)C1 (centres undefined)	> 37.5 µg/mL
CC1CCc2sc3ncnc(N4CCN(CCO)CC4)c3c2C1 (centres undefined)	> 49.9 µg/mL
Cc1cccc(NC(=O)CN2CCSc3ccccc32)c1	5.2 µg/mL (≈ 17.4 µM)
CC(C)[C@H](NC(=O)c1ccccc1)C(=O)OCC(=O)NCC1CCCO1 (some centres undefined)	> 54.4 µg/mL
O=C1NC2(CCCCC2)C(=O)N1Cc1cccc(C(F)(F)F)c1	8.4 µg/mL (≈ 25.7 µM)

Structure (SMILES)	solubility kinetic
C=CCC1(N(C(C)=O)c2ccccc2C)CCCCC1	6.7 µg/mL (≈ 24.7 µM)
CC(C)(C)C(=O)NC1CC2CCCC(C1)N2C(=O)Nc1ccccc1 (centres undefined)	12.8 µg/mL (≈ 37.3 µM)
Cc1ccc(O)c(Nc2nc(-c3ccccc3)nc3ccccc23)c1	< 0.2 µg/mL
Cc1ccc(C(=O)Nc2cccc3cccnc23)cc1C	< 0.3 µg/mL
CC(C)(C)c1ccc(-c2cnco2)cc1	0.9 µg/mL (≈ 4.47 µM)
COCC(C)n1c(C)cc(C(=O)COC(=O)c2cnc(Cl)c(Cl)c2)c1C (centres undefined)	34 µg/mL (≈ 85.2 µM)
Cc1cnc(-n2c(=S)[nH]c3ccccc3c2=O)s1	> 41.3 µg/mL
Cc1cc(NC(=O)C(C)Sc2nc(-c3ccccc3)cc(=O)[nH]2)no1 (centres undefined)	17.4 µg/mL (≈ 48.8 µM)
O=C(COC(=O)c1nsc(Cl)c1Cl)NC1CCCCC1	> 50.6 µg/mL
CC(Sc1nncs1)C(=O)Nc1ccc(S(=O)(=O)Nc2ncccn2)cc1 (centres undefined)	> 63.4 µg/mL
O=C(CN1CCCCCC1)Nc1ccc(S(=O)(=O)N2CCCCC2)cc1	50.4 µg/mL (≈ 133 µM)
CC(C)CCC(C(=O)O)C(C)CC(=O)NNC(=O)c1ccco1 (centres undefined)	> 48.7 µg/mL
COc1ccc(CNC(=O)c2c(O)c3ccccc3n(C)c2=O)cc1	< 0.4 µg/mL
CC(=O)N(C)c1ccc(C(O)(C(F)(F)F)C(F)(F)F)cc1	> 47.3 µg/mL
CC1CCC(NC(=O)c2ccc(COc3ccccc3)o2)CC1 (centres undefined)	1.7 µg/mL (≈ 5.42 µM)
S=c1[nH]nc(CSCCOc2ccc(Cl)cc2Cl)o1	> 50.6 µg/mL
O=C(Nc1ccc(N2CCCC2)cc1)c1ccc(Br)cc1	1.4 µg/mL (≈ 4.06 µM)
c1nc(Nc2ccc(N3CCOCC3)cc2)c2ccsc2n1	> 46.9 µg/mL
O=C(NN1CCOCC1)c1ccccc1Br	> 42.8 µg/mL
COc1ccccc1Nc1nc(Cl)nc(Nc2ccccc2OC)n1	< 0.2 µg/mL
COCCNC(=O)C12CC3CC(CC(Cl)(C3)C1)C2	> 40.8 µg/mL
CCc1cccc(C)c1NC(=O)CSc1nc(C)c(C)o1	> 45.7 µg/mL
Cc1cc(CNC(=O)c2cccc([N+](=O)[O-])c2)c2ccccc2n1	2.8 µg/mL (≈ 8.71 µM)
CCC(C)[C@H](NC(=O)Nc1ccc(S(N)(=O)=O)cc1)C(=O)OC (some centres undefined)	> 51.5 µg/mL

Structure (SMILES)	solubility kinetic
Cc1ccc(/C(O)=C2\C(=O)C(=O)N(C)C2c2cccc([N+](=O)[O-])c2)cc1 (centres undefined)	51.5 µg/mL (≈ 146 µM)
Cc1cc(NCCCN(C)C)n2c(nc3ccccc32)c1C#N	> 46.1 µg/mL
CC(=O)N/C(=C\c1ccccc1)C(=O)OC/C=C/c1ccccc1	47.3 µg/mL (≈ 147 µM)
CC(C)n1c(=S)[nH]c2cc(C(F)(F)F)ccc21	9.1 µg/mL (≈ 35 µM)
CC(=O)Nc1cccc(NC(=O)COc2ccccc2C)c1	> 44.8 µg/mL
O=C(C(=O)N1CCOCC1)c1cn(Cc2ccccc2)c2ccccc12	6.4 µg/mL (≈ 18.4 µM)
Cc1cccc(N2C(=O)C3CCCN3C2=S)c1C (centres undefined)	38.4 µg/mL (≈ 147 µM)
Cc1nnc(NC(=O)CSc2nnc(C)c(=O)n2N)s1	> 47 µg/mL
O=C(O)CCC(=O)N(Cc1ccccc1)Cc1ccccc1	> 44.6 µg/mL
CC(C(=O)c1c[nH]c2ccccc12)N1CCN(C(=O)c2ccco2)CC1 (centres undefined)	> 52.7 µg/mL
O=C(Cn1cnc([N+](=O)[O-])c1)Nc1ccc(F)c(Cl)c1	5 µg/mL (≈ 16.7 µM)
COP(=O)(OC)/C(C=O)=N/Nc1ccc([N+](=O)[O-])cc1	> 45.2 µg/mL
O=C(COc1ccc(-n2ccnc2)cc1)Nc1cccc(F)c1	31.1 µg/mL (≈ 99.9 µM)
Cc1nc(Cl)c2c(n1)NC(=O)CO2	> 29.9 µg/mL
Cc1c(Cl)cccc1NC(=O)CS(=O)(=O)c1ccccc1	30.3 µg/mL (≈ 93.6 µM)
COc1ccc(C2C(C#N)=C(N)Oc3cccc(O)c32)cc1 (centres undefined)	9.6 µg/mL (≈ 32.6 µM)
CC1CCCN(S(=O)(=O)c2cccc(C(=O)NCC3CCCO3)c2)C1 (centres undefined)	> 55 µg/mL
O=C(CN1C(=O)NC2(CCc3ccccc32)C1=O)NCc1cccc(C(F)(F)F)c1 (centres undefined)	55.2 µg/mL (≈ 132 µM)
Cc1ccc(NS(=O)(=O)c2ccc3c(c2)CCC(=O)N3)cc1	> 47.5 µg/mL
CCOC(=O)C(=O)N1CCC(Cc2ccccc2)CC1	35.8 µg/mL (≈ 130 µM)
Cl.O=S(=O)(CCc1ccncc1)c1ccc(Cl)cc1	> 47.7 µg/mL
Cc1ccc(C(=O)NCCN2CCOCC2)cc1[N+](=O)[O-]	> 44 µg/mL
CC(=Nc1ccccc1O)c1sc2ccccc2c1O	< 0.6 µg/mL
CCN1CCc2nc(N)sc2C1	25.8 µg/mL (≈ 141 µM)

Structure (SMILES)	solubility kinetic
OC(CCNCCc1c[nH]c2ccccc12)C(F)(F)F (centres undefined)	35.8 µg/mL (≈ 125 µM)
CCc1ncc(C)[nH]1	> 16.5 µg/mL
O=C1NC(=Nc2ccc(F)cc2)CS1	> 31.5 µg/mL
Fc1ccc(N=Cc2ccc[nH]2)cc1	11 µg/mL (≈ 58.4 µM)
Cc1ccc(OCCn2ccnc2)c(C)c1	22.8 µg/mL (≈ 105 µM)
COC(=O)c1ccc(S(=O)(=O)c2ccc([N+](=O)[O-])cc2)cc1	0.9 µg/mL (≈ 2.8 µM)
N#C/C(=C\c1ccc2c(c1)OCO2)C(=O)NCc1ccco1	0.6 µg/mL (≈ 2.03 µM)
COc1ccc(C(=O)Nc2cccc3ccccc23)cc1	1.1 µg/mL (≈ 3.97 µM)
Nc1ncnc(Nc2ccc(F)c(Cl)c2)n1	8.4 µg/mL (≈ 35.1 µM)
CC1COc2ccccc2N1C(=O)c1cccnc1Cl (centres undefined)	> 43.3 µg/mL
CC(=O)Nc1cccc(OCCCNS(=O)(=O)c2ccc(C#N)cc2)c1	> 56 µg/mL
C=C(C)CN(CC)C(=O)CN1C(=O)NC2(CCCc3ccccc32)C1=O (centres undefined)	> 53.3 µg/mL
COC(=O)c1cc(-c2ccc(OC)cc2)on1	9.7 µg/mL (≈ 41.6 µM)
Cc1ccccc1OCC(=O)OCC(=O)NCc1ccco1	> 45.5 µg/mL
Cc1cc(C)nc(SCC(=O)Nc2ccnc3ccccc23)n1	6.6 µg/mL (≈ 20.3 µM)
CCOC(=O)N1CCN(c2ccncc2S(=O)(=O)N2CCCCC2)CC1	> 57.4 µg/mL
COc1ccc(C(=O)OCC(=O)N2CCc3ccccc3C2)cc1OC	> 53.3 µg/mL
CNC(=O)c1ccccc1-c1cn(C)c2ccccc2c1=O	> 43.9 µg/mL
Clc1ccc(-c2nc(-c3ccncc3)no2)c(Cl)c1	< 0.2 µg/mL
O=C(CN1C(=O)S/C(=C\c2ccccn2)C1=O)Nc1ccc(F)cc1	0.9 µg/mL (≈ 2.52 µM)
CN(CC(=O)NC(=O)NC1CCCCC1)Cc1ccccc1	> 45.5 µg/mL
N#Cc1c(N)n(-c2ccccc2N)c2nc3ccccc3nc12	5.4 µg/mL (≈ 18 µM)
Cc1ccc(CCC(=O)NCc2ccccc2)o1	> 36.5 µg/mL
CCOc1ccc(Nc2nc(-c3cccnc3)cs2)cc1	< 0.2 µg/mL

Structure (SMILES)	solubility kinetic
O=C1NC2(CCCCCC2)N=C1c1ccc(Br)cc1	0.9 µg/mL (≈ 2.8 µM)
COc1ccc(OC)c(CN2CCCCCC2)c1.O=C(O)C(=O)O	48.2 µg/mL
O=c1nc(N2CCCC2)nc(N2CCCC2)[nH]1	34.3 µg/mL (≈ 146 µM)
Cl.O=C(c1cc(-c2cccc3ccccc23)nc2ccccc12)N1CCN(CCO)CC1	> 67.2 µg/mL
Cc1cc(C)cc(N2C(N)=NC(N)=NC2c2ccccc2F)c1.Cl (centres undefined)	> 52.2 µg/mL
CCOC(=O)COc1cc([N+](=O)[O-])cc2cccnc12	> 41.4 µg/mL
Cc1cccc(NC(=O)CCCCC(=O)Nc2cccc(C)c2)c1	< 0.3 µg/mL
COC(=O)c1scc(S(C)(=O)=O)c1-n1cccc1	35.2 µg/mL (≈ 123 µM)
CN1CCC(N(C)C(=O)c2cccc(S(=O)(=O)N3CCc4ccccc43)c2)CC1	> 62 µg/mL
N#Cc1ccc(OCC(=O)OCC(=O)NC2CC2)cc1	> 41.1 µg/mL
O=C1CSCC(=O)N1c1ncc(C(F)(F)F)cc1Cl	42 µg/mL (≈ 135 µM)
N#Cc1ccc(C(=O)Nc2cccc(S(=O)(=O)NC3=NCCC3)c2)cc1	23.7 µg/mL (≈ 64.3 µM)
Cc1ccc(NC(=O)c2ccc(F)cc2F)cc1NS(C)(=O)=O	39.7 µg/mL (≈ 117 µM)
O=C(COC(=O)CNC(=O)c1cc(Cl)cc([N+](=O)[O-])c1)NC(=O)NCc1ccco1	61.7 µg/mL (≈ 141 µM)
CCC1(CC)NC(=O)N(CC(=O)Nc2ccc(OCc3ccccc3)cc2)C1=O	8.9 µg/mL (≈ 22.5 µM)
Nc1ccc(Oc2ccccc2-c2ccccc2)cc1	10.4 µg/mL (≈ 39.8 µM)
Cl.NCCNc1ccc([N+](=O)[O-])cc1	> 32.6 µg/mL
CS(=O)(=O)N(Cc1ccccc1Cl)c1ccc(C(=O)N2CCCC2)cc1	55.7 µg/mL (≈ 142 µM)
Cc1ccn2c(C(=O)NN=C3CCCCCCC3)c(C)nc2c1	> 46.9 µg/mL
CN(C)S(=O)(=O)c1ccc(C(=O)OCC(=O)N2CC3(C)CC2CC(C)(C)C3)cc1 (centres undefined)	> 63.4 µg/mL
COC(=O)CN(C#N)c1nc(NCc2ccccc2)nc(OC)n1	> 49.2 µg/mL
CCOc1ccc(S(=O)(=O)N2CCN(C(=O)c3ccc(C)c(S(=O)(=O)N4CCOCC4)c3)CC2)cc1	19.3 µg/mL (≈ 35.9 µM)
Cc1ccc(C(=O)NC(C)c2ccc(-n3ccnc3)cc2)o1 (centres undefined)	40.8 µg/mL (≈ 138 µM)
